Data from article PMC10712727, “Safety, Tolerability, and Pharmacokinetics of Senaparib, a Novel PARP1/2 Inhibitor, in Chinese Patients With Advanced Solid Tumors: A Phase I Trial” (The Oncologist, 2023).

System: advanced solid tumors
Test: Tumor response per RECIST v1.1 (ORR, DCR, DOR, PFS), ITT population
Assay type: in vivo, human
Description: The dose-expansion period included 3 populations: dose groups in which at least one patient achieved complete response (CR) or partial response (PR) per RECIST v1.1[16] and 1 dose group higher (evaluated for safety), as well as the dose group at the maximum tolerated dose (MTD)/recommended phase II dose (RP2D). Each of these groups included those patients in the respective dose-escalation group plus a planned additional 10 patients (approximately 20 patients in the MTD/RP2D group) with BRCA^mut+ solid tumors (ovarian, breast, or prostate cancer were preferred, and ovarian cancer could be BRCA wild type). Patients received senaparib monotherapy orally QD or BID (50-mg dose only) over each 3-week cycle until disease progression or unacceptable toxicity.
Safety was assessed by recording the incidence of dose-limiting toxicities (DLTs), and the incidence, nature, severity (graded per National Cancer Institute Common Terminology Criteria for Adverse Events version 4.03 [NCI CTCAE v4.03][18]), and relatedness of treatment-emergent adverse events (TEAEs). DLTs were predefined toxicities (Supplementary Table S2) recorded over the 7 days following the single-dose administration of senaparib and during the first treatment cycle (day 1-day 21) for each dose group in the dose-escalation period only. The MTD was defined as the maximum dose at which ≤1/6 patients experienced a DLT. Senaparib PK parameters were derived from blood samples collected from patients after the single administration, and at regular intervals during the first cycle of the dose-escalation and dose-expansion periods. Plasma concentrations of senaparib were determined using high-performance liquid chromatography-tandem mass spectrometry. Tumor response was assessed every 6 weeks per RECIST v1.1,[16] recording objective response rate (ORR), disease control rate (DCR), duration of response (DOR), and progression-free survival (PFS) by dose level for all patients and for those harboring BRCA^mut+ tumors.
There was no formal sample size calculation based on statistical hypothesis testing for this study; the planned enrolment was approximately 30-60 patients across the dose-escalation and dose-expansion cohorts. The actual number in the dose-escalation cohort was adjusted based on the number of dose cohorts required for the modified Fibonacci dose-escalation design and the determined MTD. Definitions for all analysis populations (safety, DLT, PK, and efficacy [intent-to-treat, ITT]) are provided in Supplementary Table S2. No statistical tests were performed; patient demographic and baseline characteristics, safety/tolerability, PK parameters, and efficacy were evaluated descriptively. ORR and DCR and their 95% CIs were calculated for each group using the exact probability method. Kaplan-Meier statistics were used to estimate DOR and PFS, and their 95% CIs for each dose group separately. Dose linearity was explored based on the single-dose data of area under the time-concentration curve (AUC) and maximum plasma concentration (Cmax) using the power model (Y = α × dose β) for the dose range 2-80 mg on a log-transformed scale. The following criterion was used to determine whether dose proportionality was met: if the (2-sided) 90% CI for β was wholly contained within the interval (1 + log(0.5)/log(r), 1 + log(2)/log(r)), then dose proportionality was supported. Here, r was defined as the ratio of the highest to lowest dose. All data analyses were carried out using SAS EG7.1 or higher or (for PK parameters) WinNonlin 7.0 or higher.

[1] = ITT, evaluable n = 44, all doses

O=C(c1cc(Cn2c(=O)[nH]c(=O)c3c(F)cccc32)ccc1F)N1CCN(c2ncccn2)CC1 [Senaparib]
Patients with a reduction from baseline in tumor size (BRCA wild-type (6/18)): 33.3% | Patients with a reduction from baseline in tumor size (BRCA^mut+ patients (13/26)): 50.0% | Median PFS (ITT population, 95% CI, 56-255 days): 167 days | DOR, Events (ITT, 2 mg QD n = 1): 0 n (%) | ORR (ITT, 2 mg QD n = 1): 0 n (%) | PFS, Events (ITT, 2 mg QD n = 1): 0 (0) n (%) | DOR, Events (ITT, 5 mg QD n = 3): 0 n (%) | ORR (ITT, 5 mg QD n = 3): 0 n (%) | PFS, Events (ITT, 5 mg QD n = 3): 2 (66.7) n (%) | PFS, Median (95% CI) (ITT, 5 mg QD n = 3): 464 (45-464) days | Complete response (ITT, 10 mg QD n = 3): 0 n (%) | DCR (ITT, 10 mg QD n = 3): 1 (33.3) n (%) | DOR, Events (ITT, 10 mg QD n = 3): 0 n (%) | ORR (ITT, 10 mg QD n = 3): 0 (0) n (%) | PFS, Events (ITT, 10 mg QD n = 3): 3 (100) n (%) | PFS, Median (95% CI) (ITT, 10 mg QD n = 3): 49 (47-88) days | Partial response (ITT, 10 mg QD n = 3): 0 n (%) | Stable disease (ITT, 10 mg QD n = 3): 1 (33.3) n (%) | Complete response (ITT, 20 mg QD n = 5): 0 n (%) | DCR (ITT, 20 mg QD n = 5): 2 (50.0) n (%) | DOR, Events (ITT, 20 mg QD n = 5): 1 (50.0) n (%) | DOR, Median (95% CI) (ITT, 20 mg QD n = 5): — (1-NR) | ORR (ITT, 20 mg QD n = 5): 2 (50.0) n (%) | PFS, Events (ITT, 20 mg QD n = 5): 3 (60.0) n (%) | PFS, Median (95% CI) (ITT, 20 mg QD n = 5): 78 (39-NR) days | Partial response (ITT, 20 mg QD n = 5): 2 (50.0) n (%) | Stable disease (ITT, 20 mg QD n = 5): 0 n (%) | Complete response (ITT, 40 mg QD n = 3): 0 n (%) | DCR (ITT, 40 mg QD n = 3): 0 (0) n (%) | DOR, Events (ITT, 40 mg QD n = 3): 0 n (%) | ORR (ITT, 40 mg QD n = 3): 0 (0) n (%) | PFS, Events (ITT, 40 mg QD n = 3): 2 (66.7) n (%) | PFS, Median (95% CI) (ITT, 40 mg QD n = 3): 49 (48-NR) days | Partial response (ITT, 40 mg QD n = 3): 0 n (%) | Stable disease (ITT, 40 mg QD n = 3): 0 n (%) | Complete response (ITT, 50 mg BID n = 4): 0 n (%) | DCR (ITT, 50 mg BID n = 4): 2 (66.7) n (%) | DOR, Events (ITT, 50 mg BID n = 4): 0 n (%) | ORR (ITT, 50 mg BID n = 4): 1 (33.3) n (%) | PFS, Events (ITT, 50 mg BID n = 4): 1 (25.0) n (%) | PFS, Median (95% CI) (ITT, 50 mg BID n = 4): — (46-NR) | Partial response (ITT, 50 mg BID n = 4): 1 (33.3) n (%) | Stable disease (ITT, 50 mg BID n = 4): 1 (33.3) n (%) | Complete response (ITT, 60 mg QD n = 5): 0 n (%) | DCR (ITT, 60 mg QD n = 5): 4 (100) n (%) | DOR, Events (ITT, 60 mg QD n = 5): 0 n (%) | ORR (ITT, 60 mg QD n = 5): 1 (25.0) n (%) | PFS, Events (ITT, 60 mg QD n = 5): 2 (40.0) n (%) | PFS, Median (95% CI) (ITT, 60 mg QD n = 5): 255 (127-NR) days | Partial response (ITT, 60 mg QD n = 5): 1 (25.0) n (%) | Stable disease (ITT, 60 mg QD n = 5): 3 (75.0) n (%) | Complete response (ITT, 80 mg QD n = 9): 0 n (%) | DCR (ITT, 80 mg QD n = 9): 6 (75.0) n (%) | DOR, Events (ITT, 80 mg QD n = 9): 4 (100) n (%) | DOR, Median (95% CI) (ITT, 80 mg QD n = 9): 144.5 (39-211) days | ORR (ITT, 80 mg QD n = 9): 4 (50.0) n (%) | PFS, Events (ITT, 80 mg QD n = 9): 8 (88.9) n (%) | PFS, Median (95% CI) (ITT, 80 mg QD n = 9): 167 (40-216) days | Partial response (ITT, 80 mg QD n = 9): 4 (50.0) n (%) | Stable disease (ITT, 80 mg QD n = 9): 2 (25.0) n (%) | Complete response (ITT, 100 mg QD n = 20): 0 n (%) | DCR (ITT, 100 mg QD n = 20): 12 (70.6) n (%) | DOR, Events (ITT, 100 mg QD n = 20): 1 (50.0) n (%) | DOR, Median (95% CI) (ITT, 100 mg QD n = 20): — (169-NR) | ORR (ITT, 100 mg QD n = 20): 2 (11.8) n (%) | PFS, Events (ITT, 100 mg QD n = 20): 8 (40.0) n (%) | PFS, Median (95% CI) (ITT, 100 mg QD n = 20): 289 (48-NR) days | Partial response (ITT, 100 mg QD n = 20): 2 (11.8) n (%) | Stable disease (ITT, 100 mg QD n = 20): 10 (58.8) n (%) | Complete response (ITT, 120 mg QD n = 4): 0 n (%) | DCR (ITT, 120 mg QD n = 4): 1 (33.3) n (%) | DOR, Events (ITT, 120 mg QD n = 4): 0 n (%) | ORR (ITT, 120 mg QD n = 4): 0 (0) n (%) | PFS, Events (ITT, 120 mg QD n = 4): 3 (75.0) n (%) | PFS, Median (95% CI) (ITT, 120 mg QD n = 4): 153 (44-258) days | Partial response (ITT, 120 mg QD n = 4): 0 n (%) | Stable disease (ITT, 120 mg QD n = 4): 1 (33.3) n (%) | Complete response (ITT, Total N = 57): 0 n (%) | DCR (ITT, Total N = 57): 28 (63.6) n (%) | DOR, Events (ITT, Total N = 57): 6 (60.0) n (%) | DOR, Median (95% CI) (ITT, Total N = 57): 169 (1-NR) days | ORR (ITT, Total N = 57): 10 (22.7) n (%) | PFS, Events (ITT, Total N = 57): 32 (56.1) n (%) | PFS, Median (95% CI) (ITT, Total N = 57): 167 (56-255) days | Partial response (ITT, Total N = 57): 10 (22.7) n (%) | Stable disease (ITT, Total N = 57): 18 (40.9) n (%) | Disease control rate (DCR) [1]: 63.6% | Objective response rate (ORR) [1]: 22.7% | Stable disease, patients [1]: 40.9% | Median DOR (ITT, 95% CI, 1-not reached): 169 days | Doses at which antitumor activity was observed (in vivo): ≥ 20 mg QD | Patients with a decrease from baseline in tumor size (non-ovarian cancers (6/20)): 30.0% | Patients with a decrease from baseline in tumor size (ovarian cancer (13/24)): 54.2% | ORR (patients with breast cancer (3/12)): 25.0% | ORR (patients with ovarian cancer (5/25)): 20.0% | ORR (patients with prostate cancer (1/4)): 25.0%
